Source: patent publication US20030229451A1, “Methods and systems for analyzing complex biological systems” (priority 2001, published 2003)

Test system: Saccharomyces cerevisiae wild type strain BY4743
Assay: AF1 combined gene expression and metabolite mapping to reactions and pathways (KEGG)
Type: cell-based
Text: The pathway score indicates how meaningful the mapping is, or how likely it is to be correctly indicative of the pathway involved in the perturbation under examination. The method provides a pathway score based on perturbation levels of genes and/or compounds and the information content of each gene and/or compound in the pathway, i.e., a pathway score indicates the extent to which other pathways are mapped to a gene/compound. For example, imagine that two genes are perturbed in a particular experiment. One gene maps to only one pathway, giving a high degree of probability that the perturbed pathway is the one identified in the mapping. The second gene maps to three pathways. In the later example, there is only one-third the probability that the pathway identified in the mapping is the one perturbed. The present invention provides a method for calculating the pathway scores, so that more weight is given to a score of a gene or compound that maps to only one pathway than to a score of a gene or compound that maps to multiple pathways. […] Where n=the total number of genes in the pathway; ipath—count=the number of pathways containing a gene; and j=the number of genes in the pathway that are perturbed. Another factor to be considered when weighting a pathway score is the degree of perturbation. Degree of perturbation can be calculated, for example, based on a number of standard deviations from a norm, and included in an equation such as the one shown above, so that not only the number of pathways is taken into account, but also accounts for the amount of gene transcript or compound present as compared to a control. The data were then combined to determine the number of reactions showing an enzyme and at least one compound perturbed, and to determine the number of pathways having at least one enzyme and one perturbed compound perturbed. The results of the analysis are represented in Tables 16 and 17, and were difficult to interpret, illustrating that the ability to draw conclusions from compound mapping to pathways is limited when absent additional data.

SMILES | # Reactions Having an Enzyme and at Least One Compound Perturbed | Number Of Pathways Having at Least One Enzyme and One Compound Perturbed (# Reactions)
C[C@@H]1[C@H](O)[C@@H](C)/C=C/C=C/C=C/C=C/C=C/C=C/C=C/[C@H](O[C@@H]2O[C@H](C)[C@@H](O)[C@H](N)[C@@H]2O)C[C@@H]2O[C@](O)(C[C@@H](O)C[C@@H](O)[C@H](O)CC[C@@H](O)C[C@@H](O)CC(=O)O[C@H]1C)C[C@H](O)[C@H]2C(=O)O [Amphoteracin B] | 54 | 37
OC(Cn1cncn1)(Cn1cncn1)c1ccc(F)cc1F [Fluconazole] | 2 | 15
CC[C@@H]([C@H](C)O)n1ncn(-c2ccc(N3CCN(c4ccc(OC[C@@H]5CO[C@@](Cn6cncn6)(c6ccc(F)cc6F)C5)cc4)CC3)cc2)c1=O [Posaconazole] | 0 | 3
